{"source": "patent US4826688A", "about": "“Controlled absorption pharmaceutical formulation” (501 Elan Corporation PLC., priority 1985, dated 1989)", "origin": "cited, not measured here", "data": [{"smiles": "C=C[C@H]1C[N@@]2CC[C@H]1C[C@@H]2[C@@H](O)c1ccnc2ccc(OC)cc12", "note": "[Quinidine sulphate]", "values": [{"measurement": "absorption from the gastro-intestinal tract", "setting": "in words", "value": "rapidly absorbed"}, {"measurement": "peak plasma concentrations are reached", "setting": "quinidine sulphate, usual", "value": "about two"}]}, {"smiles": "C=C[C@H]1C[N@@]2CC[C@H]1C[C@@H]2[C@@H](O)c1ccnc2ccc(OC)cc12", "note": "[Quinidine, (+)-α-(6-methoxyquinolin-4-yl)-α-(5-vinylquinuclidin-2-yl)methanol]", "values": [{"measurement": "excretion in the urine", "setting": "in words", "value": "almost entirely excreted in the urine"}]}]}
